Measured values published in patent publication US20130310344A1, “N-ACYLSULFONAMIDE APOPTOSIS PROMOTERS” (ASTRAZENECA AB, priority 2010, published 2013).
Counter-ions that a name gives are not always drawn.

Legend:
Bcl-XL = target: T1, Bcl-XL (Homo sapiens, UniProt Q07817); assay: Bcl-XL FP assay (competitive fluorescence polarization binding assay, FITC-Bim BH-3 peptide tracer); details: C-terminal 6×HIS tagged Bcl-XL (aa 1-209), 0.8 nM; 2 nM FITC-Bim peptide tracer
T1 construct: a C-terminal 6×HIS tagged Bcl-XL (aa 1-209); 6xHis (C)
T1 sequence (Q07817 1-209): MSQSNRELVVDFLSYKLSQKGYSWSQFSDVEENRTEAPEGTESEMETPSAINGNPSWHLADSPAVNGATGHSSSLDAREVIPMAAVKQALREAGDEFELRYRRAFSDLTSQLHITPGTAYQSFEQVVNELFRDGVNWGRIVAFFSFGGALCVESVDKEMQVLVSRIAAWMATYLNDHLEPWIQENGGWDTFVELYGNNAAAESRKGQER
Excerpt: (§1) Bcl-xL and Bcl-2 FP binding affinity of compound(s) of Formulae (I), (I-a), (I-b), (I-c), (I-d) and/or (I-e) may be determined using a variety of known methods. One such assay is a sensitive and quantitative in vitro binding assay using fluorescence polarization (“FP”) described by Wang, J.-L.; Zhang, Z-J.; Choksi, S.; Sjam. S.; Lu, Z.; Croce, C. M.; Alnemri, E. S.; Komgold, R.; Huang, Z. Cell permeable Bcl-2 binding peptides: a chemical approach to apoptosis induction in tumor cells. Cancer Res. 2000, 60, 1498-1502).
(§2) Additionally, the binding affinity of compound(s) of Formulae (I), (I-a), (I-b), (I-c), (I-d) and/or (I-e) to Bcl-2 protein in vitro was determined by a competitive binding assay based on fluorescence polarization. For example, fluorescence polarization (“FP”) assays may be developed using a c-terminal 6×HIS tagged Bcl-2 (aa 1-204) and a C-terminal 6×HIS tagged Bcl-XL (aa 1-209). […] Dilutions of either Bcl-2 (1.3 nM) or Bcl-XL (0.8 nM) may be added to serial dilutions of antagonist and incubated for one hour prior to the addition of 2 nM of fluorescent peptide tracer (Anaspec, Fremont, Calif.) in the assay buffer. Final assay buffer conditions may be 20 mM HEPES, pH 7.5, 1 mM DTT, 0.005% Tween-20 and 50 mM NaCl. Samples may be read after 20-minute incubation. Fluorescence polarization values may be plotted as a function of the antagonist concentration.

Bcl-2 = target: T2, Bcl-2 (Homo sapiens, UniProt P10415); assay: Bcl-2 FP assay (competitive fluorescence polarization binding assay, FITC-Bim BH-3 peptide tracer); details: c-terminal 6×HIS tagged Bcl-2 (aa 1-204), 1.3 nM; 2 nM FITC-Bim peptide tracer
T2 construct: a c-terminal 6×HIS tagged Bcl-2 (aa 1-204); 6xHis (C)
T2 sequence (P10415 1-204): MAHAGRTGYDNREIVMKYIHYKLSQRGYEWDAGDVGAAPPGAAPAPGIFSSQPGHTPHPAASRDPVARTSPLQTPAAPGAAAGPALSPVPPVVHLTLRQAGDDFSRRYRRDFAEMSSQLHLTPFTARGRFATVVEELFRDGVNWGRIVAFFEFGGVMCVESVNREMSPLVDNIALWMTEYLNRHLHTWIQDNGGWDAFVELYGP
Excerpt: as §1, §2

Row | IC50 (Bcl-XL) [nM] | IC50 (Bcl-2) [nM] | Compound
1 | 1 | < 1 | O=C(NS(=O)(=O)c1ccc(N[C@H](CCN2CCN(CCO)CC2)CSc2ccccc2)c(S(=O)(=O)C(F)(F)F)c1)c1ccc(N2CCC([C@@H](O)c3ccccc3-c3ccc(Cl)cc3)CC2)cc1 [Example 1, 4-(4-((R)-(4′-chlorobiphenyl-2-yl)(hydroxy)methyl)piperidin-1-yl)-N-(4-((R)-4-(4-(2-hydroxyethyl)piperazin-1-yl)-1-(phenylthio)butan-2-ylamino)-3-(trifluoromethylsulfonyl)phenylsulfonyl)benzamide, formic acid salt]
2 | 1 | < 0.3 | CN(CCO)CC[C@H](CSc1ccccc1)Nc1ccc(S(=O)(=O)NC(=O)c2ccc(N3CCC([C@@H](O)c4ccccc4-c4ccc(Cl)cc4)CC3)cc2)cc1S(=O)(=O)C(F)(F)F [Example 3, 4-(4-((R)-(4′-chlorobiphenyl-2-yl)(hydroxy)methyl)piperidin-1-yl)-N-(4-((R)-4-((2-hydroxyethyl)(methyl)amino)-1-(phenylthio)butan-2-ylamino)-3-(trifluoromethylsulfonyl)phenylsulfonyl)benzamide]
3 | 0.8 | 0.5 | CCN(CCO)CC[C@H](CSc1ccccc1)Nc1ccc(S(=O)(=O)NC(=O)c2ccc(N3CCC([C@@H](O)c4ccccc4-c4ccc(Cl)cc4)CC3)cc2)cc1S(=O)(=O)C(F)(F)F [Example 4, 4-(4-((R)-(4′-chlorobiphenyl-2-yl)(hydroxy)methyl)piperidin-1-yl)-N-(4-((R)-4-(ethyl(2-hydroxyethyl)amino)-1-(phenylthio)butan-2-ylamino)-3-(trifluoromethylsulfonyl)phenylsulfonyl)benzamide]
4 | 1 | 0.9 | CN(CCOP(=O)(O)O)CC[C@H](CSc1ccccc1)Nc1ccc(S(=O)(=O)NC(=O)c2ccc(N3CCC([C@@H](O)c4ccccc4-c4ccc(Cl)cc4)CC3)cc2)cc1S(=O)(=O)C(F)(F)F [Example 9, 2-(((R)-3-(4-(N-(4-(4-((R)-(4′-chlorobiphenyl-2-yl)(hydroxy)methyl)piperidin-1-yl)benzoyl)sulfamoyl)-2-(trifluoromethylsulfonyl)phenylamino)-4-(phenylthio)butyl)(methyl)amino)ethyl dihydrogen phosphate, hydrochloride salt]
5 | 1 | 0.7 | O=C(NS(=O)(=O)c1ccc(N[C@H](CCN2CCN(CCOP(=O)(O)O)CC2)CSc2ccccc2)c(S(=O)(=O)C(F)(F)F)c1)c1ccc(N2CCC([C@@H](O)c3ccccc3-c3ccc(Cl)cc3)CC2)cc1 [Example 10, 2-(4-((R)-3-(4-(N-(4-(4-((R)-(4′-chlorobiphenyl-2-yl)(hydroxy)methyl)piperidin-1-yl)benzoyl)sulfamoyl)-2-(trifluoromethylsulfonyl)phenylamino)-4-(phenylthio)butyl)piperazin-1-yl)ethyl dihydrogen phosphate]

The remaining lines, values behind:

Row | Compound | IC50 (Bcl-XL) [nM] | IC50 (Bcl-2) [nM]
6 | 4-(4-((R)-(4′-chlorobiphenyl-2-yl)(cyano)methyl)piperidin-1-yl)-N-(4-((R)-4-morpholino-1-(phenylthio)butan-2-ylamino)-3-(trifluoromethylsulfonyl)phenylsulfonyl)benzamide and 4-(4-((S)-(4′-chlorobiphenyl-2-yl)(cyano)methyl)piperidin-1-yl)-N-(4-((R)-4-morpholino-1-(phenylthio)butan-2-ylamino)-3-(trifluoromethylsulfonyl)phenylsulfonyl)benzamide, mixture of diastereomers [Example 17] | 1 | –
7 | CN(C)CC[C@H](CSc1ccccc1)Nc1ccc(S(=O)(=O)NC(=O)c2ccc(N3CCC([C@@H](O)c4ccccc4-c4ccc(Cl)cc4)CC3)cc2)cc1[N+](=O)[O-] [Example 2, 4-(4-((R)-(4′-chlorobiphenyl-2-yl)(hydroxy)methyl)piperidin-1-yl)-N-(4-((R)-4-(dimethylamino)-1-(phenylthio)butan-2-ylamino)-3-nitrophenylsulfonyl)benzamide] | 1 | 0.3
8 | O=C(NS(=O)(=O)c1ccc(N[C@H](CCN(CCO)CCO)CSc2ccccc2)c(S(=O)(=O)C(F)(F)F)c1)c1ccc(N2CCC([C@@H](O)c3ccccc3-c3ccc(Cl)cc3)CC2)cc1 [Example 5, N-(4-((R)-4-(bis(2-hydroxyethyl)amino)-1-(phenylthio)butan-2-ylamino)-3-(trifluoromethylsulfonyl)phenylsulfonyl)-4-(4-((R)-(4′-chlorobiphenyl-2-yl)(hydroxy)methyl)piperidin-1-yl)benzamide, formic acid salt] | 1 | 0.8
9 | O=C(NS(=O)(=O)c1ccc(N[C@H](CCN(CCOP(=O)(O)O)CCOP(=O)(O)O)CSc2ccccc2)c(S(=O)(=O)C(F)(F)F)c1)c1ccc(N2CCC([C@@H](O)c3ccccc3-c3ccc(Cl)cc3)CC2)cc1 [Example 7, 2,2′-((R)-3-(4-(N-(4-(4-((R)-(4′-chlorobiphenyl-2-yl)(hydroxy)methyl)piperidin-1-yl)benzoyl)sulfamoyl)-2-(trifluoromethylsulfonyl)phenylamino)-4-(phenylthio)butylazanediyl)bis(ethane-2,1-diyl)bis(dihydrogen phosphate), hydrochloride salt] | 1 | 2
10 | CCN(CCOP(=O)(O)O)CC[C@H](CSc1ccccc1)Nc1ccc(S(=O)(=O)NC(=O)c2ccc(N3CCC([C@@H](O)c4ccccc4-c4ccc(Cl)cc4)CC3)cc2)cc1S(=O)(=O)C(F)(F)F [Example 8, 2-(((R)-3-(4-(N-(4-(4-((R)-(4′-chlorobiphenyl-2-yl)(hydroxy)methyl)piperidin-1-yl)benzoyl)sulfamoyl)-2-(trifluoromethylsulfonyl)phenylamino)-4-(phenylthio)butyl)(ethyl)amino)ethyl dihydrogen phosphate, hydrochloride salt] | 1 | 0.9
11 | CN(CCO)CC[C@H](CSc1ccccc1)Nc1ccc(S(=O)(=O)NC(=O)c2ccc(N3CCC([C@@H](N)c4ccccc4-c4ccc(Cl)cc4)CC3)cc2)cc1S(=O)(=O)C(F)(F)F [Example 11, 4-(4-((R)-amino(4′-chlorobiphenyl-2-yl)methyl)piperidin-1-yl)-N-(4-((R)-4-((2-hydroxyethyl)(methyl)amino)-1-(phenylthio)butan-2-ylamino)-3-(trifluoromethylsulfonyl)phenylsulfonyl)benzamide, formic acid salt] | 3 | 4
12 | CCN(CCO)CC[C@H](CSc1ccccc1)Nc1ccc(S(=O)(=O)NC(=O)c2ccc(N3CCC([C@@H](N)c4ccccc4-c4ccc(Cl)cc4)CC3)cc2)cc1S(=O)(=O)C(F)(F)F [Example 12, 4-(4-((R)-amino(4′-chlorobiphenyl-2-yl)methyl)piperidin-1-yl)-N-(4-((R)-4-(ethyl(2-hydroxyethyl)amino)-1-(phenylthio)butan-2-ylamino)-3-(trifluoromethylsulfonyl)phenylsulfonyl)benzamide, formic acid salt] | 3 | 3
13 | N[C@@H](c1ccccc1-c1ccc(Cl)cc1)C1CCN(c2ccc(C(=O)NS(=O)(=O)c3ccc(N[C@H](CCN4CCN(CCO)CC4)CSc4ccccc4)c(S(=O)(=O)C(F)(F)F)c3)cc2)CC1 [Example 13, 4-(4-((R)-amino(4′-chlorobiphenyl-2-yl)methyl)piperidin-1-yl)-N-(4-((R)-4-(4-(2-hydroxyethyl)piperazin-1-yl)-1-(phenylthio)butan-2-ylamino)-3-(trifluoromethylsulfonyl)phenylsulfonyl)benzamide, formic acid salt] | 15 | 16
14 | O=C(NS(=O)(=O)c1ccc(N[C@H](CCN2CCOC[C@H]2CO)CSc2ccccc2)c(S(=O)(=O)C(F)(F)F)c1)c1ccc(N2CCC([C@@H](O)c3ccccc3-c3ccc(Cl)cc3)CC2)cc1 [Example 24, 4-(4-((R)-(4′-chlorobiphenyl-2-yl)(hydroxy)methyl)piperidin-1-yl)-N-(4-((R)-4-((R)-3-(hydroxymethyl)morpholino)-1-(phenylthio)butan-2-ylamino)-3-(trifluoromethylsulfonyl)phenylsulfonyl)benzamide, formic acid salt] | – | 0.4
15 | O=C(NS(=O)(=O)c1ccc(N[C@H](CCN2CCOC[C@@H]2CO)CSc2ccccc2)c(S(=O)(=O)C(F)(F)F)c1)c1ccc(N2CCC([C@@H](O)c3ccccc3-c3ccc(Cl)cc3)CC2)cc1 [Example 25, 4-(4-((R)-(4′-chlorobiphenyl-2-yl)(hydroxy)methyl)piperidin-1-yl)-N-(4-((R)-4-((S)-3-(hydroxymethyl)morpholino)-1-(phenylthio)butan-2-ylamino)-3-(trifluoromethylsulfonyl)phenylsulfonyl)benzamide, hydrochloride salt] | – | 0.4
